Test results: US5958407A, “Ileus treatment method” (The Regents of the Uinversity of California, priority 1998, dated 1999)
Values joined by “and” are separate entries in the source; they are usually repeats but may differ in a detail not shown here. Equal values may be shown once. Read-outs that look alike come from different tables or passages of the source. No end group written: not given here.

Legend:
tryptase [1] = target: T1, tryptase (Homo sapiens, UniProt Q15661); assay: Inhibition of the Ca2+ response of myocytes to HMC-1 mast cell filtrate; type: cell-based; parameters: HMC-1 human mast cells; endogenous in cells; host or cells: HMC-1 human mast cells, filtrate after degranulation with substance P
T1 sequence (Q15661 31-275): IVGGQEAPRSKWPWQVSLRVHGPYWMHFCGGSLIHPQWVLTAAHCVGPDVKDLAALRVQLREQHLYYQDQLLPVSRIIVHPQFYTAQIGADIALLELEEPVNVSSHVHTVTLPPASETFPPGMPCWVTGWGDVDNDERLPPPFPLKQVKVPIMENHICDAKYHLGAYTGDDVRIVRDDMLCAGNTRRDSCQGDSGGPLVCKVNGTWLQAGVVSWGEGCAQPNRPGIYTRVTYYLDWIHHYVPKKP
Description: (§1) Degranulation of HMC-1 cells (human mast cell line) with substance P was induced, and a filtrate for Ca^2+ responses in myocytes was assessed, to determine if mast cells release proteases that cleave and activate PAR-2.
(§2) Myocytes were incubated in physiological salt solution (PSS) with 2.5 μM Fura-2/AM for 20 min at 37° C. Fluorescence was measured in individual cells using an ICCD video camera (Stanford Photonics, Stanford, Calif.) and a video microscopy acquisition program (Axon Industries, Foster City, Calif.). Fluorescence was measured at 340 and 380 nm excitation and 510 nm emission. The ratio of the fluorescence at the two excitation wavelengths, which is proportional to the [Ca^2+ ]i, was calculated. Fresh cells were studied with each agonist and a minimum of 10 cells analyzed in 2-4 experiments on different days.
HMC-1 human mast cells (300 μl of 7×10^6 /ml in PSS containing 25 μg/ml heparin) were incubated with 100 μM substance P for 5 min at room temperature to induce degranulation. The suspension was filtered and assayed for stimulation of Ca^2+ mobilization.

tryptase [2] = target: T1, tryptase; assay: Ca2+ response of myocytes to tryptase pre-incubated with inhibitor; type: cell-based
Description: as §2

tryptase [3] = target: T1, tryptase; details: cited from earlier work
[4] = tested on: strips of rat proximal colon
[5] = tested on: mice with cecal manipulation; assay: GI transit in mice with surgically induced ileus; type: in vivo; details: 1 mg/kg orally 30 minutes prior to anesthesia
Description: GI transit was measured in fed mice by oral gavage pf 0.3 ml carmine red in methylcellulose. Whole GI transit time was defined as the appearance of the first red fecal pellet. Upper GI transit time was defined as the appearance as the percentage of the distance traveled along the small intestine by the marker in 30 minutes. Cecal manipulation for 5 minutes or skin incision alone was performed under halothane anesthesia and the marker administered 1 hour after surgery.
Skin incision alone had little effect on transit time.

PAR-2 = target: T2, PAR-2 (Rattus norvegicus, UniProt Q63645); assay: Ca2+ mobilization by colonic myocytes (Fura-2); type: cell-based; details: for EC50: read-out: EC50, increase in [Ca2+]i
T2 construct: endogenous in cells; host or cells: cultured colonic myocytes (rat)
T2 sequence (Q63645 26-397): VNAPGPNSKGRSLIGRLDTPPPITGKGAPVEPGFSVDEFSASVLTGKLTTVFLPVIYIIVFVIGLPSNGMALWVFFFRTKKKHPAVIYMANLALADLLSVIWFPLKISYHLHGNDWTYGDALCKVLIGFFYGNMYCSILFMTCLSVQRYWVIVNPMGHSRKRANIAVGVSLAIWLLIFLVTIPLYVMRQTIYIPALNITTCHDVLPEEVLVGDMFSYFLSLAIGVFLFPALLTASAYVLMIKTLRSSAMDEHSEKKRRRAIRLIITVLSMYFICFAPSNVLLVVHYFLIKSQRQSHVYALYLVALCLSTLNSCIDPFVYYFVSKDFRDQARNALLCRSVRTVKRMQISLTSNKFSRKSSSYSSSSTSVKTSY
Description: Ac. Ca^2+ Mobilization by Colonic Myocytes. The activation of PAR-2 in myocytes was assessed by measuring Ca^2+ mobilization, as described in Example 3.
as §1, §2

trypsin = assay: Ca2+ response of myocytes to trypsin pre-incubated with inhibitor; type: cell-based; details: 1 nM trypsin; 10 mg/ml SBTI, 60 min at 37° C. before assay
Description: Ac. Ca^2+ Mobilization by Colonic Myocytes. The activation of PAR-2 in myocytes was assessed by measuring Ca^2+ mobilization, as described in Example 3. Trypsin and AP (SLIGRL-NH2) stimulated a prompt increase in [Ca^2+ ]i.
as §2

N=C(N)c1ccc2nc(Cc3nc4ccc(C(=N)N)cc4[nH]3)[nH]c2c1 [BABIM, bis(5-amidino-2-benzimidazolyl) methane]
inhibition of the [Ca2+]i response to HMC-1 mast cell filtrate (tryptase [1]): 46.5±1% and ~ 50%
Ca2+ response to tryptase after pre-incubation with inhibitor (tryptase [2]): no Ca^2+ response

CC(C)(C)c1ccc(OC(=O)[C@H]2CC[C@H](CNC(=N)N)CC2)cc1 [GMCHA-OPhBut, trans-4-guanidinomethylcyclohexane-carboxylic acid 4-tert butylphenyl ester]
concentrations that inhibit tryptase activity (tryptase [3]): 1 to 100 µM

COC(=O)[C@@H](N)CCCNC(=N)N[N+](=O)[O-] [L-NAME, L-N^G -nitro arginine methyl ester]
effect of pre-incubation on the effects of trypsin and AP ([4]; 100 μM L-NAME for 15 min): did not prevent

CCCCC[C@H](O)/C=C/[C@H]1[C@H](O)CC(=O)[C@@H]1C/C=C\CCCC(=O)O [PGE2]
effect on colonic motility ([4]; 30 nM PGE2): inhibited colonic motility

COc1ccc2c(c1)c(CC(=O)O)c(C)n2C(=O)c1ccc(Cl)cc1 [indomethacin]
effect of pre-incubation on the response to trypsin and AP ([4]; 1 μM indomethacin for 15 min): had no effect

CN1CCC(=C2c3ccccc3CC(=O)c3sccc32)CC1 [ketotifen]
effect on inhibition of GI transit produced by abdominal surgery ([5]; cecal manipulation): partially reversed
effect on transit time in unoperated animals ([5]; unoperated): little effect

CC(=O)N[C@@H](CC(C)C)C(=O)N[C@@H](CC(C)C)C(=O)N[C@H](C=O)CCCNC(=N)N [leupeptin]
inhibition of the [Ca2+]i response to HMC-1 mast cell filtrate (tryptase [1]; myocytes, filtrate of HMC-1 cells degranulated with substance P): 46.5±4%
Ca2+ response to tryptase after pre-incubation with inhibitor (tryptase [2]; 40 nM tryptase, 1 μM inhibitor, 5 min at room temperature before assay): no Ca^2+ response

NC1=N[C@H](O)[C@H]2[C@H]3O[C@]4(O)O[C@@H]([C@@H](O)[C@@]2(N1)[C@@H]4O)[C@]3(O)CO [tetrodotoxin]
effect on amplitude and frequency of contractions [4]: immediate and sustained increase

HOE-140
effect on bradykinin-induced inhibition of spontaneous contractions ([4]; 100 nM bradykinin, pre-incubation with 100 nM HOE-140 for 5 min): abolished
effect on the inhibition of colonic motility by trypsin and AP ([4]; HOE-140): had no effect

RPPGFSPFR [bradykinin]
effect on spontaneous contractions ([4]; 100 nM bradykinin): marked inhibition of spontaneous contractions

SLIGRL-NH2 [AP, SLIGRL-NH2]
EC50 (PAR-2; colonic myocytes): ~1000 nM

substance P: used to induce degranulation of HMC-1 mast cells
Ca2+ mobilization in myocytes (PAR-2; 100 μM substance P): did not stimulate

tryptase: mast cell protease released upon degranulation
effect on amplitude of spontaneous contractions ([4]; tryptase at concentrations of up to 90 nM): did not alter the amplitude of spontaneous contractions
EC50 (PAR-2; colonic myocytes): ~100 nM
fold less potent than trypsin (Ca2+ mobilization) (PAR-2; colonic myocytes, tryptase vs trypsin): 100 fold

B1: trypsin: protease that cleaves and activates PAR-2 (protein, UniProt P00760 24-246, looked up)
Serine protease 1: IVGGYTCGANTVPYQVSLNSGYHFCGGSLINSQWVVSAAHCYKSGIQVRLGEDNINVVEGNEQFISASKSIVHPSYNSNTLNNDIMLIKLKSAASLNSRVASISLPTSCASAGTQCLISGWGNTKSSGTSYPDVLKCLKAPILSDSSCKSAYPGQITSNMFCAGYLEGGKDSCQGDSGGPVVCSGKLQGIVSWGSGCAQKNKPGVYTKVCNYVSWIKQTIASN
effect on motility of tetrodotoxin-treated tissues [4]: inhibited this elevated motility
fold more potent than AP (colonic motility) [4]: 10 fold
time to recovery of spontaneous activity after washing ([4]; 1 μM trypsin for 5 min, then washed extensively): > 6 h
inhibition of mean amplitude at highest concentration ([4]; 3 μM trypsin): 60%
threshold for inhibition of mean amplitude of spontaneous contractions ([4]; colon strips (mucosa plus muscle)): 300 nM
effect on spontaneous contractions in the absence of the mucosa ([4]; colonic strips with mucosa removed): inhibited spontaneous contractions
EC50 ([4]; read-out: EC50, reduction in mean amplitude of spontaneous contractions, colon strips (mucosa plus muscle)): ~500 nM
delay before inhibition of motility ([4]; trypsin at 1 μM, AP concentration not stated): 31 ± 5 s
fold more potent than AP (Ca2+ mobilization) (PAR-2): 1,000 fold
EC50 (PAR-2; colonic myocytes): ~1 nM

B2: SBTI: SBTI, pre-incubated with trypsin before assay; abbreviation not expanded (protein, UniProt P01070 25-205, looked up)
Trypsin inhibitor A: DFVLDNEGNPLENGGTYYILSDITAFGGIRAAPTGNERCPLTVVQSRNELDKGIGTIISSPYRIRFIAEGHPLSLKFDSFAVIMLCVGIPTEWSVVEDLPEGPAVKIGENKDAMDGWFRLERVSDDEFNNYKLVFCPQQAEDDKCGDIGISIDHDDGTRRLVVSKNKPLVVQFQKLDKESL
Ca2+ response to trypsin after pre-incubation with inhibitor (trypsin): no Ca^2+ response
